The nature of this experiment: Blind test panel evaluation of sugar-free hard-boiled candies by trained evaluators. Particulars: hard-boiled candy. It is filed as in vivo. The protocol: The composition above was then used to prepare sugar-free hard-boiled candies, as follows: Isomalt (100 g) and water (30 g) were mixed and heated to 160° C. in a copper pan. At 160° C., the copper pan was removed from the heat and placed in a warm water bath (40° C.). When the temperature reached 135° C., aspartame, acesulfame-K, the liquid acidulant mixture (1.0%) and flavor were added. The cooked mass was poured at ambient temperature into appropriate Teflon® molds.
The following Table I summarizes the ingredients and respective dosages used in the preparation as described here above of a control hard-boiled candy according to the prior art and containing only citric acid as acidulant and a candy prepared according to the invention.
The Control candy and the Invention Candy were then evaluated by a panel of trained evaluators, on a blind test, and the results of this evaluation are shown in FIG. 1.

Results on one compound are retold here after patent publication US20120129953A1, “TINGLING AND SALIVATING COMPOSITIONS” (FIRMENICH SA, priority 2006, published 2012).

Consider `O=C(O)CC(O)(CC(=O)O)C(=O)O` [Citric acid], for which the impact and sourness entry is listed as “deliver the expected effect”.
